From ChEMBL document CHEMBL1201862, “PubChem BioAssay data set” (2004)
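Interpolation was linear, between the two tested concentrations surrounding the appropriate level; five concentrations were tested over 48 hours in 96-well plates. GI50 = concentration required for 50% inhibition of growth.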 The source made the active and inactive calls. Rule as the data show it: active = GI50 up to about 1.1 µM and inactive = higher.

Experiments:
Assay in all cases: NCI anticancer screen, dose series, 48 h
RPMI-8226 = test system: RPMI-8226
SF-295 = test system: SF-295
OVCAR-3 = test system: OVCAR-3
OVCAR-5 = test system: OVCAR-5
U-251 = test system: U-251
CCRF-CEM = test system: CCRF-CEM
KM12 = test system: KM12
SR = test system: SR
A498 = test system: A498
SK-OV-3 = test system: SK-OV-3
SF-539 = test system: SF-539
SNB-75 = test system: SNB-75
TK-10 = test system: TK-10
HT-29 = test system: HT-29
RXF 393 = test system: RXF 393
OVCAR-8 = test system: OVCAR-8
SNB-19 = test system: SNB-19

Measured: GI50

Cc1[nH]c2c(C)cccc2c1C1Cc2ccccc2N1 (centres undefined)
inactive: RPMI-8226 22.9 µM | SF-295 19.8 µM | OVCAR-3 16.7 µM | OVCAR-5 21.2 µM | U-251 20 µM | CCRF-CEM 25.5 µM | KM12 17.5 µM | SR 20.7 µM | A498 28.6 µM | SK-OV-3 36.5 µM | SF-539 17.8 µM | SNB-75 > 100 µM | TK-10 23 µM | HT-29 19.5 µM | RXF 393 10.7 µM | OVCAR-8 19.5 µM | SNB-19 29.1 µM

COc1ccc(NC(=O)c2oc3cc(O)ccc3c(=O)c2C)c([N+](=O)[O-])c1
inactive: SF-295 > 100 µM | OVCAR-3 > 100 µM | OVCAR-5 > 100 µM | U-251 > 100 µM | CCRF-CEM > 100 µM | KM12 > 100 µM | SR > 100 µM | A498 > 100 µM | SK-OV-3 > 100 µM | SF-539 > 100 µM | SNB-75 > 100 µM | TK-10 > 100 µM | HT-29 > 100 µM | RXF 393 > 100 µM | OVCAR-8 > 100 µM | SNB-19 > 100 µM

COc1cc2noc(-c3ccccc3)c2cc1OC
inactive: RPMI-8226 18.7 µM | SF-295 19 µM | OVCAR-5 29.2 µM | U-251 26.7 µM | CCRF-CEM 42.5 µM | KM12 29 µM | SR 37 µM | A498 20.2 µM | SK-OV-3 63 µM | SF-539 10.6 µM | SNB-75 4.59 µM | TK-10 80.9 µM | HT-29 36.6 µM | RXF 393 23.8 µM | OVCAR-8 64.4 µM | SNB-19 54 µM

O=C(CCc1nnc2s/c(=C\c3ccc(Cl)cc3Cl)c(=O)n12)Nc1cc(Cl)c(Cl)cc1Cl
inactive: RPMI-8226 > 10 µM | SF-295 > 10 µM | OVCAR-3 > 10 µM | OVCAR-5 > 10 µM | U-251 72.4 µM | CCRF-CEM > 10 µM | KM12 > 10 µM | SR > 10 µM | A498 > 10 µM | SK-OV-3 > 10 µM | SF-539 > 10 µM | SNB-75 29 µM | TK-10 55.7 µM | HT-29 > 10 µM | RXF 393 > 10 µM | OVCAR-8 > 10 µM | SNB-19 > 10 µM

CCOC(=O)C(CCCNC(=O)OC(C)(C)C)N(Cc1ccc(OC)cc1OC)C(=O)CC(=O)CP(=O)(OCC)OCC (centres undefined)
inactive: RPMI-8226 > 100 µM | SF-295 > 100 µM | OVCAR-3 > 100 µM | OVCAR-5 > 100 µM | U-251 > 100 µM | CCRF-CEM > 100 µM | KM12 > 100 µM | SR 42.7 µM | A498 > 100 µM | SK-OV-3 > 100 µM | SF-539 > 100 µM | SNB-75 > 100 µM | TK-10 > 100 µM | HT-29 > 100 µM | RXF 393 > 100 µM | OVCAR-8 > 100 µM | SNB-19 > 100 µM

Cc1cc(Br)ccc1NC1=CC(=O)C(=O)c2ccccc21
inactive: RPMI-8226 36.9 µM | SF-295 38.5 µM | OVCAR-3 35 µM | OVCAR-5 70.8 µM | U-251 26.4 µM | CCRF-CEM 35.1 µM | KM12 38.5 µM | SR 15.5 µM | A498 86.7 µM | SK-OV-3 49.3 µM | SF-539 74.8 µM | SNB-75 41.1 µM | TK-10 99.8 µM | HT-29 51.2 µM | RXF 393 30.5 µM | OVCAR-8 42.2 µM | SNB-19 24.2 µM

COC(=O)C1=C(c2cc(OC)c(OC)c(OC)c2)O[C@H](c2ccc3c(c2)OCO3)[C@H]1COC(C)=O
inactive: RPMI-8226 24.2 µM | SF-295 6.85 µM | OVCAR-3 30.5 µM | OVCAR-5 48.6 µM | U-251 24.1 µM | CCRF-CEM 40.2 µM | KM12 20.2 µM | SR 7.35 µM | A498 21.4 µM | SK-OV-3 23.1 µM | SF-539 26.3 µM | SNB-75 27.3 µM | TK-10 39.2 µM | HT-29 18.6 µM | OVCAR-8 39.3 µM

CC(=O)Nc1ccc(C2[C@H]3C(=O)N(c4ccc(Cc5ccc(N6C(=O)[C@@H]7ON(c8ccccc8)C(c8ccc(NC(C)=O)cc8)[C@@H]7C6=O)cc5)cc4)C(=O)[C@H]3ON2c2ccccc2)cc1 (some centres undefined)
inactive: RPMI-8226 > 100 µM | SF-295 > 100 µM | OVCAR-3 > 100 µM | OVCAR-5 > 100 µM | U-251 > 100 µM | CCRF-CEM > 100 µM | KM12 > 100 µM | SR > 100 µM | A498 > 100 µM | SK-OV-3 > 100 µM | SF-539 > 100 µM | SNB-75 > 100 µM | TK-10 > 100 µM | HT-29 > 100 µM | RXF 393 > 100 µM | OVCAR-8 > 100 µM | SNB-19 > 100 µM

COc1ccc(S(=O)(=O)N/N=C/CN2C(=O)c3ccccc3C2=O)cc1
inactive: RPMI-8226 > 100 µM | SF-295 > 100 µM | U-251 > 100 µM | CCRF-CEM > 100 µM | KM12 > 100 µM | SR > 100 µM | A498 > 100 µM | SF-539 > 100 µM | SNB-75 > 100 µM | TK-10 > 10 µM | HT-29 > 100 µM | RXF 393 > 100 µM | OVCAR-8 > 100 µM | SNB-19 > 100 µM

O=C1c2ccccc2N2OC3(N4CCCC4)CCCCC3C12c1ccccc1 (centres undefined)
inactive: RPMI-8226 > 100 µM | SF-295 18.3 µM | U-251 28.1 µM | CCRF-CEM 18.7 µM | SR 33.8 µM | A498 > 100 µM | SK-OV-3 > 100 µM | SF-539 31.4 µM | SNB-75 34.1 µM | HT-29 21.8 µM | RXF 393 17.5 µM | OVCAR-8 17.5 µM | SNB-19 > 100 µM

COC(=O)/C=C1/CCC(C(=O)OC)N1 (centres undefined)
inactive: RPMI-8226 > 100 µM | SF-295 > 100 µM | OVCAR-3 > 100 µM | U-251 > 100 µM | CCRF-CEM > 100 µM | KM12 > 100 µM | SR > 100 µM | A498 > 100 µM | SK-OV-3 > 100 µM | SF-539 > 100 µM | SNB-75 > 100 µM | TK-10 > 100 µM | RXF 393 > 100 µM | OVCAR-8 > 100 µM | SNB-19 > 100 µM

O=C1C=C(Nc2ccccc2C(=O)c2ccccc2)c2ccccc2C1=O
inactive: RPMI-8226 51.6 µM | SF-295 > 100 µM | OVCAR-3 70 µM | OVCAR-5 > 100 µM | U-251 70.8 µM | KM12 33.3 µM | SR 48.1 µM | A498 > 100 µM | SK-OV-3 > 100 µM | SF-539 > 100 µM | SNB-75 96.6 µM | HT-29 > 100 µM | RXF 393 > 100 µM | OVCAR-8 > 100 µM | SNB-19 > 100 µM
